Source: PubChem BioAssay (NCI)
“And” between values parts separate entries of the source, which are not always exact repeats. Equal values may be shown once.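 All cell lines were grown in 96-well plates and treated with compound for 48 hours. The concentration for 50% growth inhibition is given as GI50. TGI: total growth inhibition.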

Columns and labels:
Assay in all cases: inhibition of tumour cell growth, NCI panel, 48 h
[1] = tested on: DMS 273 small cell lung
[2] = tested on: HCT-116 colon
[3] = tested on: LOX IMVI melanoma
[4] = tested on: LXFL 529 NSCLC
[5] = tested on: M19-MEL melanoma
[6] = tested on: NCI/ADR-RES ovarian
[7] = tested on: OVCAR-3 ovarian
[8] = tested on: RXF 393 renal
[9] = tested on: SK-OV-3 ovarian
[10] = tested on: SN12C renal

SMILES | TGI [1] [µM] | TGI [2] | TGI [3] [µM] | TGI [4] [µM] | TGI [5] [µM] | TGI [6] [µM] | TGI [7] | TGI [8] | TGI [9] [µM] | TGI [10] | GI50 [8]
CCc1nc2ccc(N=Nc3c(O)ccc4ccccc34)cc2[nH]1 | 35.3 | 30.8 µM | 28.8 | 24.5 | 33.8 | 54.8 | 37.2 µM | 25.6 µM | > 62 | 38.2 µM | –
O=C1/C(=C/c2ccc(Cl)cc2)CNC/C1=C\c1ccc(Cl)cc1 | 5.78 | 3.07 µM and 3.85 µM | 4.02 | 2.4 | 4.81 | 9.61 | 4.87 µM and 4.9 µM | 3 µM and 7.85 µM | > 100 | 6.38 µM and 14.3 µM | 1640 nM and 3970 nM
O=C(CCN1CCCCC1)N1CCc2c([nH]c3ccccc23)C1c1cccnc1 (stereo unspecified) | > 100 | > 100 µM | > 100 | 38.1 | 46.1 | > 100 | > 100 µM | 81.5 µM | > 100 | > 100 µM | –
